# Source: patent publication US20060167013A1, “Inhibitors for excessive accumulation of sodium ion in cells” (priority 2002, published 2006)
# Test system: ischemic and reperfused hearts
# Experiment: Ischemia and reperfusion of the isolated rat heart perfused by the Langendorff method: ventricular total sodium content and recovery in contractile tension
# Conditions: for Sodium Content: 45 min ischemia, 30 min reperfusion, atomic absorption; for Recovery in Contractile Tension: at 30 min after reperfusion, relative to tension at beginning of experiment; for increase of ventricular sodium content induced by ischemia and reperfusion (result in words): added in the reperfusion solution
# Procedure: The heart of the rat was excised and perfused with Krebs buffer solution (in mM: NaCl 119, KCl 4.6, MgSO4.7H2O 1.2, CaCl2·2H2O 1.3, NaHCO3 25, KH2PO4 1.2, glucose 11; pH 7.4, 37° C.) according to the Langendorff method. A thread was attached to the apex of the heart, and then the end was connected to a tension transducer to determine contractile tension. The preparation was stabilized, and then myocardial ischemia was induced by reducing a perfusion pressure (for 45 minutes). After reperfusion for 30 min, the heart was liquefied in nitric acid, and ventricular total sodium content was determined by atomic absorption analysis. Contractile tension was measured during the experiment, and a recovery rate in the contractile tension at 30 min after the reperfusion, relative to the contractile tension at the beginning of the experiment, was used as an index of cardiac contractility.
SMILES,Sodium Content (10^−3 M) [µmol/g],Recovery in Contractile Tension (10^−3 M) [%],Sodium Content (10^−4 M) [µmol/g],Recovery in Contractile Tension (10^−4 M) [%],Sodium Content (10^−5 M) [µmol/g],Recovery in Contractile Tension (10^−5 M) [%],increase of ventricular sodium content induced by ischemia and reperfusion (result in words),Sodium Content (10^−6 M in reperfusion solution) [µmol/g],Recovery in Contractile Tension (10^−6 M) [%],Sodium Content (10^−7 M in reperfusion solution) [µmol/g],Recovery in Contractile Tension (10^−7 M) [%],Sodium Content (10^−8 M in reperfusion solution) [µmol/g],Recovery in Contractile Tension (10^−8 M) [%],Sodium Content (10^−9 M in reperfusion solution) [µmol/g],Recovery in Contractile Tension (10^−9 M) [%]
"N=C(N)NC(=O)c1nc(Cl)c(N)nc1N [Amiloride, reference compound]",64.8 ± 3.7,59.0 ± 4.7,71.8 ± 3.3,45.4 ± 3.8,77.9 ± 3.9,33.3 ± 7.2,no effect,,,,,,,,
"Cc1ccc(N2CCNCC2)c(S(=O)(=O)O)c1.O [MCC-135, 5-methyl-2-(1-piperazinyl)benzenesulfonic acid monohydrate]",,,,,,,suppressed,59.9 ± 2.3,79.4 ± 4.7,62.2 ± 0.6,68.4 ± 3.2,68.7 ± 3.7,49.1 ± 2.9,68.4 ± 6.2,40.0 ± 4.9
